Converted amounts (≈) assume the structure as drawn. Where two headings read alike, the source gives them in different places.

Data set [1] relates to E. coli Juhl A15119. Kind of data set: Antibiotic activity in nutrient broth (MIC). The data set is classed as cell-based. As to conditions: derivatives adjusted for BL-S640 content. The source says: (§1) Antibiotic Activity In Nutrient Broth
(§2) ** Dilution of overnight broth culture.
(§3) Antibiotic Spectrum Nutrient Broth
(§4) Antibiotic Spectrum in Nutrient Broth

The test system of data set [2] is Ent. cloacae A9657. As to the kind of experiment: Antibiotic activity in nutrient broth (MIC). The data set is classed as cell-based. As to conditions: derivatives adjusted for BL-S640 content.
Source text: as §1, §2, §3, §4

The test system of data set [3] is Pr. mirabilis A9900. Kind of data set: Antibiotic activity in nutrient broth (MIC). It is filed as cell-based. As to conditions: Proteus mirabilis, inoculum 10^-4, derivatives adjusted for BL-S640 content.
Source text: as §1, §2, §3, §4

For data set [4], the system named is S. aureus BX1633 A9606. As to the kind of experiment: Antibiotic activity in nutrient broth (MIC). It is filed as cell-based. As to conditions: derivatives adjusted for BL-S640 content.
Source text: as §1, §2, §3, §4

The subject of data set [5] is S. aureus Smith A9537. As to the kind of experiment: Antibiotic activity in nutrient broth (MIC). It is filed as cell-based. As to conditions: derivatives adjusted for BL-S640 content.
Source text: as §1, §2, §3, §4

In data set [6] the test system is Ser. marcescens A20019. As to the kind of experiment: Antibiotic activity in nutrient broth (MIC). It is filed as cell-based. As to conditions: derivatives adjusted for BL-S640 content.
Source text: as §1, §2, §3, §4

For data set [7], the system named is bacterial spectrum. Kind of data set: Antibacterial activity / MIC bacterial spectrum compared with parent. As to conditions: in words. It is filed as cell-based. The source says:
|Antibiotic Activity In Nutrient Broth

A short description of data set [8]: Rat blood levels. The data set is classed as in vivo. The following applies: in words.
Data set [9] in a line: Water solubility. It is filed as physicochemical. The following applies: for solubility: read-out: Solubility in water.
The nature of data set [10]: Stability of solids. It is filed as physicochemical. The following applies: solid; 1 month at 56° C.; read-out: Stability of Solids (loss).
Data set [11] in a line: Stability of aqueous solutions. It is filed as physicochemical.
Data set [12] in a line: IR-NMR: cyclic / non cyclic derivative in solution. As to conditions: 70 mg/ml. The data set is classed as physicochemical.
A short description of data set [13]: Detection in urine (with mouse blood levels). It is filed as in vivo. As to conditions: no evidence of the derivative.
Data set [14] can be described thus: physchem.
Experimental: Paper strip bioautographs were run in the following manner. Samples were dissolved at a concentration of 500 γ/ml. in 0.1M pH 7 phosphate buffer and pH 7 pooled human serum at 500 γ/ml. A 10 μl sample of BL-S640 and the above product were spotted on a 1/2 inch strip of What. No. 1 paper and developed at 27° for 16 hours in a butyl acetate 80, n-butanol 15, acetic acid 40, and water 24 system. The strips were air-dried, and placed on an agar plate seeded with B. subtilis A.T.C.C.
Samples were chromatographed on a μ Bondapak C18 (Waters Associates) column using a 0.01M sodium acetate pH 4/-methanol 8/2 mobile phase at a flow rate of 0.52 ml./min. Detection was by UV at 354 μm. Samples were dissolved at a concentration of 1 mg./ml. in the mobile phase, 2 μ were injected and BL-S640 was eluted at 18 min. and the aldehyde at 6 min. The quantitation of BL-S640 and 5-formylfuransulfonic acid were made using p-toluene-sulfonic acid as an internal standard.
Where [15] appears, read: Escherichia coli, JUHLA15119, inoculum 10^-4, read-out: MIC.
Where [16] appears, read: Enterobacter cloacae, A9657, inoculum 10^-4, read-out: MIC.
Setting [17] is: Staphylococcus aureus, BX1633A9606, inoculum 10^-2, read-out: MIC.
Setting [18] is: Staphylococcus aureus, SMITHA9537, inoculum 10^-4, + 50% serum, read-out: MIC.
The mark [19] stands for this setting: Serratia marcescens, A20019, inoculum 10^-4.
[20] abbreviates: Staphylococcus aureus, BX1633A9606, inoculum 10^-3, read-out: MIC.
Where [21] appears, read: Staphylococcus aureus, SMITHA9537, inoculum 10^-4, nutrient broth, read-out: MIC.

As for `N[C@@H](C(=O)N[C@@H]1C(=O)N2C(C(=O)O)=C(CSc3cnn[nH]3)CS[C@H]12)c1ccc(O)cc1` [BL-S640, 7-[D-α-amino-α-(p-hydroxyphenyl)acetamido]-3-(1,2,3-triazol-5-ylthiomethyl)-3-cephem-4-carboxylic acid, reference compound], the MIC in data set [1] (setting [15]) turned out to be 1 µg/mL (≈ 2.16 µM); in data set [1] (inoculum 10^-4) it was 0.5 µg/mL (≈ 1.08 µM); in data set [2] (setting [16]) it was 1 µg/mL (≈ 2.16 µM); in data set [2] (inoculum 10^-4), 0.5 µg/mL (≈ 1.08 µM); in data set [3], 0.5 µg/mL (≈ 1.08 µM); in [4] (setting [17]) it was 4 µg/mL (≈ 8.65 µM). In addition, the MIC in data set [4] (inoculum 10^-2) was 2 µg/mL (≈ 4.32 µM); in [5] (setting [18]), 4 µg/mL; in data set [5] (inoculum 10^-4, + 50% serum), 2 µg/mL; in [6] (setting [19]), more than 125 µg/mL; in [6] (Serratia marcescens, A20019, inoculum 10^-4, read-out: MIC), 63 µg/mL (≈ 136 µM).
For `O=C(O)COc1ccccc1C1N[C@H](c2ccc(O)cc2)C(=O)N1[C@@H]1C(=O)N2C(C(=O)O)=C(CSc3cnn[nH]3)CS[C@H]12` (stereo partly shown) [BL-S1048], the minimal inhibitory concentration (MIC) in data set [1] (setting [15]) was determined as 0.5 µg/mL (≈ 0.8 µM); in data set [2] (setting [16]), 0.5 µg/mL (≈ 0.8 µM); in data set [3], 0.5 µg/mL (≈ 0.8 µM); in data set [4] (setting [17]), 2 µg/mL (≈ 3.2 µM); in data set [4] (setting [20]), 0.25 µg/mL (≈ 0.4 µM); in data set [5] (setting [18]), 2 µg/mL. Further, the MIC in data set [5] (setting [21]) is 0.13 µg/mL (≈ 0.208 µM); in data set [6] (setting [19]) it was more than 125 µg/mL.
Consider `O=C(O)C1=C(CSc2cnn[nH]2)CS[C@@H]2[C@H](N3C(=O)[C@@H](c4ccc(O)cc4)NC3c3ccc(S(=O)(=O)O)o3)C(=O)N12` (stereo partly shown) [BL-S1027], for which the minimum inhibitory concentration (MIC) in [1] (setting [15]) amounted to 1 µg/mL (≈ 1.61 µM); in data set [2] (setting [16]), 1 µg/mL (≈ 1.61 µM); in [3] it was 0.5 µg/mL (≈ 0.806 µM); in data set [4] (setting [17]), 4 µg/mL (≈ 6.44 µM); in data set [4] (setting [20]), 0.5 µg/mL (≈ 0.806 µM); in [5] (setting [18]), 2 µg/mL. Moreover, the MIC in [5] (setting [21]) is 0.27 µg/mL (≈ 0.435 µM); in [5] (inoculum 10^-4, nutrient broth), 0.25 µg/mL (≈ 0.403 µM); in data set [6] (setting [19]), more than 125 µg/mL; in data set [6] (inoculum 10^-4), 125 µg/mL (≈ 201 µM). Moreover, the “MIC bacterial spectrum / activity compared with parent” value in [7] is recorded as “equal to that of BL-S640”. Moreover, in data set [8] (intramuscular), the “Intramuscular rat blood levels compared with BL-S640” value was “equal to that of BL-S640”. Moreover, the “Oral rat blood levels compared with BL-S640” value in data set [8] (oral) was “equal to that of BL-S640”. Besides, the Solubility in water in data set [9] was more than 400 mg/mL. For the same compound, the solubility in [9] was more than 500 mg/mL. Also, the degraded in data set [10] is less than 10%. Besides, the “Storage of aqueous solutions, loss in activity” value in data set [11] (250, 25 and 10 mg. BL-S640 activity/ml., 4° C. or room temperature, at least 24 hours) is given as “no significant loss in activity”. Besides, the “Stability of solution in water: stable (retained full bioactivity)” value in data set [11] (25,000 mcg./ml., 6° C. (refrigerator)) is 14 days. Also, in data set [11] (25,000 mcg./ml., room temperature, for at least three days), the “Stability of solution in water” value is “stable (retained full bioactivity) for at least three days”. In addition, the degraded at 24 h in data set [11] (water, 250, 25 and 10 mg./ml. of BL-S640 activity, at least 24 hours at room temperature, read-out: Stability of solutions (loss)) was less than 10%. For the same compound, the “non cyclic derivative in solution” value in data set [12] amounted to 20%. Besides, the “Form appearing in urine” value in [13] is on record as “BL-S640 appeared in urine with no evidence”.
Turning to `O=C(O)C1=C(CSc2cnn[nH]2)CS[C@@H]2[C@H](N3C(=O)[C@@H](c4ccc(O)cc4)NC3c3ccccc3S(=O)(=O)O)C(=O)N12` (stereo partly shown) [BL-S1055], the MIC in data set [1] (setting [15]) came to 1 µg/mL (≈ 1.59 µM); in [2] (setting [16]), 0.5 µg/mL (≈ 0.793 µM); in [3], 0.5 µg/mL (≈ 0.793 µM); in data set [4] (setting [17]), 2 µg/mL (≈ 3.17 µM); in data set [4] (setting [20]) it was 0.5 µg/mL (≈ 0.793 µM); in data set [5] (setting [18]) it was 2 µg/mL. The figures for the MIC in data set [5] (setting [21]) and in data set [6] (setting [19]) were 0.13 µg/mL (≈ 0.206 µM) and 125 µg/mL (≈ 198 µM), respectively. In addition, the solubility in [9] is more than 400 mg/mL. The degraded at 1 h in [14] was found to be 70.5%. The compound also registered a degraded at 2 h in data set [14] of 88%.

Source of the values: patent publication US4026888A, “Certain derivatives of particular 3-thiolated cephalosporins” (priority 1976, dated 1977).
